Biological target: Voltage-dependent L-type calcium channel subunit alpha-1D (Rattus norvegicus, UniProt P27732)
Test: Inhibition of [3H]nitrendipine binding to L-type [Ca2+] channel in rat cortex homogenate, activity expressed as pIC50

Chain of Voltage-dependent L-type calcium channel subunit alpha-1D (P27732 whole entry): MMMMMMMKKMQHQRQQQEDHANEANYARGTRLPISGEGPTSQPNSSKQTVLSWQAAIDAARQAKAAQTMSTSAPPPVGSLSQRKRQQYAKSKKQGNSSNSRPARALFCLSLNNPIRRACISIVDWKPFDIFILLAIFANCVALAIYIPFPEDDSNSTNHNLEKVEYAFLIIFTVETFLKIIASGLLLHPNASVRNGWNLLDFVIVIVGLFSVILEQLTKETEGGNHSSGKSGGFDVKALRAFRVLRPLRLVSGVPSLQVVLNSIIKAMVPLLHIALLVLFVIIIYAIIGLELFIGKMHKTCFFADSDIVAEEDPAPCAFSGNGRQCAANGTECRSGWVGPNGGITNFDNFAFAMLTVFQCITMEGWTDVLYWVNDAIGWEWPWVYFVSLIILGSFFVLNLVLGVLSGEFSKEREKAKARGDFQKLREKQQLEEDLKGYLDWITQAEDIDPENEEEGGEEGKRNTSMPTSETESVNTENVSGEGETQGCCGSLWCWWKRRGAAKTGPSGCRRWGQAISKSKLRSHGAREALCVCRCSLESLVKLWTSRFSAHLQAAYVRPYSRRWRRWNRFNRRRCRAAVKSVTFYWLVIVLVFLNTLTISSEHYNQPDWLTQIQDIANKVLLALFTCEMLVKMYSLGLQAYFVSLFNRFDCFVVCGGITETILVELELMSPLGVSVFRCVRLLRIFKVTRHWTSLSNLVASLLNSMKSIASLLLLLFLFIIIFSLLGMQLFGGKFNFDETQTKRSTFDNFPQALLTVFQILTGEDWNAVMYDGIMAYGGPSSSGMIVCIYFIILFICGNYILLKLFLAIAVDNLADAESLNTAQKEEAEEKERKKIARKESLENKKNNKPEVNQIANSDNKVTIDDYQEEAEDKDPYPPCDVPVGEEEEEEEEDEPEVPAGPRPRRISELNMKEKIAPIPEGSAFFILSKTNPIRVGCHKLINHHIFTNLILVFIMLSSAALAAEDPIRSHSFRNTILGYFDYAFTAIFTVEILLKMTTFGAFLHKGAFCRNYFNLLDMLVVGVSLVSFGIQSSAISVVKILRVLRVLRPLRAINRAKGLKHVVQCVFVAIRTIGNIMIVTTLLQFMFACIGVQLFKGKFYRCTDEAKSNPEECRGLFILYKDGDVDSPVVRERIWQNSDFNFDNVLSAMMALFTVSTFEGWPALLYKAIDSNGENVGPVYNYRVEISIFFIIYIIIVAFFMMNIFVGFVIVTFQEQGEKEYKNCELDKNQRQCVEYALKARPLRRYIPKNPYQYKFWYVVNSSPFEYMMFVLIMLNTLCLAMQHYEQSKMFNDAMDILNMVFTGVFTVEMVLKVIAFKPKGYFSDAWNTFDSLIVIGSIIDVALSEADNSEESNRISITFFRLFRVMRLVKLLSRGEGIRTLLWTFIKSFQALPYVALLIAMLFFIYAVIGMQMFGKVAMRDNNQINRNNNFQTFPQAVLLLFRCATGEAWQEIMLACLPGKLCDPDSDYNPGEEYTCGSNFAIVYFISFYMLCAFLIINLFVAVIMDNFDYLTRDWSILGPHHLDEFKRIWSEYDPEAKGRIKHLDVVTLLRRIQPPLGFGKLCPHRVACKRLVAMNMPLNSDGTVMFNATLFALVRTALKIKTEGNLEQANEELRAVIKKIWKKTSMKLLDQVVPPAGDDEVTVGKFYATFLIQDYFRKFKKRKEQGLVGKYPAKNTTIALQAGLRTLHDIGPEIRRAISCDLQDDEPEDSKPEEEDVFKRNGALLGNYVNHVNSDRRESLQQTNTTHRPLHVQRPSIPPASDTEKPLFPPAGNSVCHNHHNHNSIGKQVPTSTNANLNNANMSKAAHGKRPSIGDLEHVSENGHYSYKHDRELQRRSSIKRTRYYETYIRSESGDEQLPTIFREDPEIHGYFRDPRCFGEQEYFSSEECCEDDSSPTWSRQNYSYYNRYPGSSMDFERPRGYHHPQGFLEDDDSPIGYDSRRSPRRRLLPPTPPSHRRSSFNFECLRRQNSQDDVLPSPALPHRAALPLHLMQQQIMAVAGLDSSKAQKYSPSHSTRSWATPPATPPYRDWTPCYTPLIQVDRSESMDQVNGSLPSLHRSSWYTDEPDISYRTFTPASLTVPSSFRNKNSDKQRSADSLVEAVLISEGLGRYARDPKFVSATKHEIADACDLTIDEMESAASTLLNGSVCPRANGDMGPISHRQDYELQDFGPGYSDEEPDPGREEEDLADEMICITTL

How did the IC50 turn out when COC1(OC)C=CC(C2(C3=CCC(OC)(OC)C=C3)Sc3ccccc3-n3cccc32)=CC1 was run?
The IC50 was 5010 nM.

Which IC50 does the source give for CN(C)Cc1ccc2n1-c1cc(C(F)(F)F)ccc1SC2(c1ccccc1)c1ccccc1 here?
Its IC50 is 107 nM.

With CN(C)Cc1ccc2n1-c1ccccc1SC2c1ccccc1 (centres undefined) as the compound, how does the IC50 read?
The IC50 was 316 nM.

With COc1ccc(CCNCc2ccc3n2-c2ccccc2SC3C2=CCC(OC)(OC)C=C2)cc1OC (centres undefined) as the compound, how does the IC50 read?
Its IC50 is 398 nM.

CCC(C)NCc1ccc2n1-c1ccccc1SC2c1ccc(OC)cc1OC (centres undefined) was tested. Which IC50 did it give?
Its IC50 is 15.1 nM.

How did the IC50 turn out when COc1ccc(C2Sc3ccccc3-n3c(CN(C)CCc4ccc(OC)c(OC)c4)ccc32)c(OC)c1 (centres undefined) was run?
Its IC50 is 1580 nM.

For COc1ccc([C@@H]2Sc3ccccc3N3C(=O)CC[C@@H]23)cc1, which IC50 is on record?
The IC50 was 4.37 nM.

With CC(=O)O[C@H]1c2ccc(CN(C)C)n2-c2ccccc2S[C@H]1c1ccccc1 as the compound, how does the IC50 read?
The IC50 was 5010 nM.

COc1ccc(CCN(C)Cc2ccc3n2-c2ccccc2SC3c2ccccc2)cc1OC (centres undefined) was tested. Which IC50 did it give?
Its IC50 is 200 nM.

With COc1ccc(C2(c3ccc(OC)cc3)Sc3ccccc3-n3c(CN(C)C)ccc32)cc1 as the compound, how does the IC50 read?
Its IC50 is 2190 nM.

With c1ccc(C2(c3ccccc3)Sc3ccccc3-n3cccc32)cc1 as the compound, how does the IC50 read?
The IC50 was 468 nM.

CN(C)Cc1ccc2n1-c1cccc(Cl)c1SC2(c1ccccc1)c1ccccc1 was tested. Which IC50 did it give?
The IC50 was 81.3 nM.

For CC(=O)OC1(c2ccccc2)Sc2ccccc2-n2cccc21 (centres undefined), which IC50 is on record?
Its IC50 is 4680 nM.

Which IC50 does the source give for COc1ccc(C2Sc3ccccc3-n3c(CN4CCOCC4)ccc32)cc1 (centres undefined) here?
The IC50 was 5010 nM.

With COc1ccc([C@@H]2Sc3ccc(Cl)cc3-n3c(CN(C)C)ccc3[C@@H]2OC(C)=O)cc1 as the compound, how does the IC50 read?
Its IC50 is 3.31 nM.

With COc1ccc(C2Sc3ccccc3-n3c(CN(C)CCc4ccc(OC)c(OC)c4)ccc32)cc1 (centres undefined) as the compound, how does the IC50 read?
The IC50 was 52.5 nM.

For O=C1CC[C@H]2[C@H](c3ccccc3)Sc3ccccc3N12, which IC50 is on record?
Its IC50 is 0.776 nM.

How did the IC50 turn out when CC(=O)O[C@H]1c2ccc(CN(C)C)n2-c2cc(Cl)ccc2S[C@H]1c1ccccc1 was run?
Its IC50 is 1230 nM.

With COc1ccc(C2(OC(C)=O)Sc3ccccc3-n3cccc32)cc1 (centres undefined) as the compound, how does the IC50 read?
The IC50 was 30.2 nM.

Which IC50 does the source give for COc1ccc([C@@H]2Sc3ccccc3-n3c(CN(C)C)ccc3[C@@H]2OC(C)=O)cc1 here?
The IC50 was 135 nM.

For CCC(C)NCc1ccc2n1-c1ccccc1SC2C1=CCC(OC)(OC)C=C1 (centres undefined), which IC50 is on record?
Its IC50 is 12 nM.

COc1ccc(C2Sc3ccccc3-n3c(CN(C)C)ccc32)c(OC)c1 (centres undefined) was tested. Which IC50 did it give?
The IC50 was 151 nM.

How did the IC50 turn out when Clc1cccc2c1SC(c1ccccc1)(c1ccccc1)c1cccn1-2 was run?
The IC50 was 316 nM.

Which IC50 does the source give for COc1ccc([C@@H]2Sc3ccc(C(F)(F)F)cc3-n3c(CN(C)C)ccc3[C@@H]2OC(C)=O)cc1 here?
The IC50 was 5010 nM.

Which IC50 does the source give for COC1(OC)C=CC(C2(C3=CCC(OC)(OC)C=C3)Sc3ccc(C(F)(F)F)cc3-n3cccc32)=CC1 here?
The IC50 was 5010 nM.

For FC(F)(F)c1ccc2c(c1)-n1cccc1C(c1ccccc1)(c1ccccc1)S2, which IC50 is on record?
Its IC50 is 2040 nM.

Which IC50 does the source give for CC(=O)O[C@H]1c2ccc(CN(C)C)n2-c2cc(C(F)(F)F)ccc2S[C@H]1c1ccccc1 here?
Its IC50 is 302 nM.

Clc1ccc2c(c1)-n1cccc1C(c1ccccc1)(c1ccccc1)S2 was tested. Which IC50 did it give?
Its IC50 is 4370 nM.

How did the IC50 turn out when CC(=O)OC1(c2ccccc2)Sc2ccc(C(F)(F)F)cc2-n2cccc21 (centres undefined) was run?
The IC50 was 64.6 nM.

Source: ChEMBL document CHEMBL1130013, “Diltiazem-like calcium entry blockers: a hypothesis of the receptor-binding site based on a comparative molecular field analysis model” (J Med Chem, 1997)
